# What was measured:
# human PERK (hPERK) = molecular target: T1, human PERK (hPERK) (Homo sapiens, UniProt Q9NZJ5); test: microscale thermophoresis (MST) with labeled PERK protein; type: binding
# T1 construct: gene EIF2AK3
# T1 sequence (Q9NZJ5 30-1116): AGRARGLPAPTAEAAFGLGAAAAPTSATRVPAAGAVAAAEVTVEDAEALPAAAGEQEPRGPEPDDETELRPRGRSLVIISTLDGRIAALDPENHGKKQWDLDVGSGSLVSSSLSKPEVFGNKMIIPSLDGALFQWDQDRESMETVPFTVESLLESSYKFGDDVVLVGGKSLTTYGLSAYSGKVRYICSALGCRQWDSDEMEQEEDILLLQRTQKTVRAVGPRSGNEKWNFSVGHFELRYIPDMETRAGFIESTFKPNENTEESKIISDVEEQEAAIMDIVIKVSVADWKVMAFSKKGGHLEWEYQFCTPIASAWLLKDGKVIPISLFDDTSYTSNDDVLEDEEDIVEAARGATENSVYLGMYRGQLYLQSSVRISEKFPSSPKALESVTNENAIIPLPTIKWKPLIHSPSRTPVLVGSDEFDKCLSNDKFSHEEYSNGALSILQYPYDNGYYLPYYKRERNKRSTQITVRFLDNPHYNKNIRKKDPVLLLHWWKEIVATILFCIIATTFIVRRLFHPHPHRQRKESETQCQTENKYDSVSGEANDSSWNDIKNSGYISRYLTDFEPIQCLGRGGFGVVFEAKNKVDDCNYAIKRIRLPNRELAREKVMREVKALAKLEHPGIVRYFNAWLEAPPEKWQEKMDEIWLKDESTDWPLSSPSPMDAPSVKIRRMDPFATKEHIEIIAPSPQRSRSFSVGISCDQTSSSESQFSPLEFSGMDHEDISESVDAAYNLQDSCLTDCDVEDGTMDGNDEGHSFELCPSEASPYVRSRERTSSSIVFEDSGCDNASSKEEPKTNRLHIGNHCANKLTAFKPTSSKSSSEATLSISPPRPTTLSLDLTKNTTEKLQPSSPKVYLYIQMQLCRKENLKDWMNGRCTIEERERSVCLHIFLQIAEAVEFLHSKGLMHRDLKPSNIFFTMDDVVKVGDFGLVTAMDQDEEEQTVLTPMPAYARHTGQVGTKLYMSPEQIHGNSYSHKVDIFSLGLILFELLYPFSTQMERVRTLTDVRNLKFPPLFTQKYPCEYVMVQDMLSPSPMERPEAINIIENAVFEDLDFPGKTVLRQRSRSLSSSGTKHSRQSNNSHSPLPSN
# mouse PERK (mPERK) = molecular target: T2, mouse PERK (mPERK) (Mus musculus, UniProt Q9Z2B5); test: as above; type: binding
# T2 construct: gene Eif2ak3
# T2 sequence (Q9Z2B5 29-1114): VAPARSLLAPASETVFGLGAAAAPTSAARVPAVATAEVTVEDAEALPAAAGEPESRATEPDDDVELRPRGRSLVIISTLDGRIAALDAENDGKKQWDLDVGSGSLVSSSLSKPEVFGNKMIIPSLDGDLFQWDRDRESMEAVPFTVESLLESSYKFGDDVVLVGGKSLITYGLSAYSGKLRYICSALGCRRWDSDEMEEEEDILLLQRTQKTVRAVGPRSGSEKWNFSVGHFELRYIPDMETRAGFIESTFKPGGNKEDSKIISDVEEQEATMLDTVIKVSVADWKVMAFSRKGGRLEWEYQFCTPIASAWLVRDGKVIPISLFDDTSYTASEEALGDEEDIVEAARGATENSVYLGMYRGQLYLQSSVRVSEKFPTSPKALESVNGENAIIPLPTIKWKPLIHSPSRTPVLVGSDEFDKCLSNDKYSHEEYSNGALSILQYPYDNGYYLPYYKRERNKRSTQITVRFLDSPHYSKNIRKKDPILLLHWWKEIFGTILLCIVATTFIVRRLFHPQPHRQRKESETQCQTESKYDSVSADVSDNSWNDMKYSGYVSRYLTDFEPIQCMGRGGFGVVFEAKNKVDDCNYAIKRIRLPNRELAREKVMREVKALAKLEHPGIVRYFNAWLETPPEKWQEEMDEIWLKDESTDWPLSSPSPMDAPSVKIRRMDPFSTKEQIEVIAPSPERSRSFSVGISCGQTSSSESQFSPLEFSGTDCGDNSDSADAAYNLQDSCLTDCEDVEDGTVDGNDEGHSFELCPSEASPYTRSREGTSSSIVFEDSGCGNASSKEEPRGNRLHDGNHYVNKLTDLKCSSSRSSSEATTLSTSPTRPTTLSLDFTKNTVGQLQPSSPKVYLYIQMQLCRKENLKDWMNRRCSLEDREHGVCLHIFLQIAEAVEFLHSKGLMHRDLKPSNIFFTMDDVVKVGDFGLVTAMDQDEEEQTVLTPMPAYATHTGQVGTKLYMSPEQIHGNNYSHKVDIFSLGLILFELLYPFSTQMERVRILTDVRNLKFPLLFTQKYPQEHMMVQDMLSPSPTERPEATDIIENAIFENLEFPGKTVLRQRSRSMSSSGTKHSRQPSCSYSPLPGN
smiles,measurement,setting,value
"C[C@@H]1O[C@@H](O[C@@H]2[C@@H](O)[C@H](OCCc3ccc(O)c(O)c3)O[C@H](CO[C@@H]3O[C@H](CO)[C@@H](O)[C@H](O)[C@H]3O)[C@H]2OC(=O)/C=C/c2ccc(O)c(O)c2)[C@H](O)[C@H](O)[C@H]1O [ECH, Echinacoside]",Kd,human PERK (hPERK),635 ± 74 nM
same,Kd,mouse PERK (mPERK),851 ± 81 nM

# Source: publication PMC7717986, “Echinacoside Suppresses Amyloidogenesis and Modulates F-actin Remodeling by Targeting the ER Stress Sensor PERK in a Mouse Model of Alzheimer’s Disease” (Frontiers in Cell and Developmental Biology, 2020)
